Results as given in PubChem BioAssay AID1259408 (Genetic Toxicology Data Bank (GENE-TOX), 2018).
Activity calls are given as the source filed them. No rule for the calls is given here.

Tested on: GENE-TOX genotoxicity assays, various organisms and cells
Experiment: GENE-TOX mutagenicity studies
Conditions: for call: Assay Type: In vivo carcinogenicity studies
[1] = Species/Cell Type: Escherichia coli polA (W3110 vs P3478), Assay Type: Rec-assay, DNA effects (bacterial DNA repair), Assay Code: RE2-, Evaluation Type: Evaluation A (Pre-1980)
[2] = Species/Cell Type: Escherichia coli polA (W3119 vs P3478), Assay Type: Rec-assay, DNA effects (bacterial DNA repair), Assay Code: RE1T, Evaluation Type: Evaluation A (Pre-1980)
[3] = Species/Cell Type: Mammalian polychromatic erythrocytes, Assay Type: Micronucleus test, chromosome aberrations, Assay Code: MNTT, Evaluation Type: Evaluation A (Pre-1980)
[4] = Species/Cell Type: Nonhuman, Assay Code: CCGT, Evaluation Type: Evaluation A (Pre-1980)
[5] = Species/Cell Type: Saccharomyces cerevisiae, Assay Type: Mitotic recombination or gene conversion, Assay Code: YEH-, Evaluation Type: Evaluation A (Pre-1980)
[6] = Species/Cell Type: Salmonella typhimurium (one or more of the five standard strains: TA98, TA100, TA1535, TA1537, and TA1538), Assay Type: Histidine reverse gene mutation, Ames assay, Assay Code: SAL+*, Activation: With metabolic activation, Evaluation Type: Evaluation A (Pre-1980)
[7] = Species/Cell Type: Salmonella typhimurium, Assay Type: Forward and reverse gene mutation, host-mediated assay, Assay Code: HMA-, Evaluation Type: Evaluation A (Pre-1980)
[8] = Species/Cell Type: Syrian hamster embryo (SHE) cells, Assay Type: Cell transformation, clonal assay, Assay Code: CTC-, Evaluation Type: Evaluation A (Pre-1980)
[9] = Species/Cell Type: Saccharomyces cerevisiae, Assay Type: Reverse gene mutation, Assay Code: YERT, Evaluation Type: Evaluation A (Pre-1980)
[10] = Species/Cell Type: Salmonella typhimurium (one or more of the five standard strains: TA98, TA100, TA1535, TA1537, and TA1538), Assay Type: Histidine reverse gene mutation, Ames assay, Assay Code: SAL+, Evaluation Type: Evaluation A (Pre-1980)
[11] = Species/Cell Type: Nonhuman, Assay Code: CCG+, Evaluation Type: Evaluation A (Pre-1980)
[12] = Species/Cell Type: Drosophila melanogaster, Assay Type: Sex-linked recessive lethal gene mutation, Assay Code: SRL+, Evaluation Type: Evaluation A (Pre-1980)

CC(=O)Nc1cccc2c1-c1ccccc1C2
mutagenic call [1]: inactive; negative | mutagenic call [2]: no conclusion | mutagenic call (Species/Cell Type: Fischer rat embryo (RLV/1706) cells, Assay Type: Cell transformation, viral enhanced, Assay Code: CTR+, Evaluation Type: Evaluation A (Pre-1980)): active; positive | mutagenic call [3]: no conclusion | mutagenic call (Species/Cell Type: Mouse (BALB/c-3T3) cells, Assay Type: Cell transformation, Assay Code: CTB+D, Dose Response: With dose response, Evaluation Type: Evaluation A (Pre-1980)): active; positive | mutagenic call (Species/Cell Type: Mouse lymphoma (L5178Y) cells, Assay Type: Forward gene mutation at the thymidine kinase (TK) locus, chromosome aberrations, Assay Code: L51+*, Activation: With metabolic activation, Evaluation Type: Evaluation A (Pre-1980)): active; positive | call [4]: no conclusion | mutagenic call (Species/Cell Type: Nonhuman, Assay Type: Sister-chromatid exchange (SCE) in vitro, Assay Code: SC2T, Evaluation Type: Evaluation B (Post-1980)): no conclusion | mutagenic call (Species/Cell Type: Rat primary hepatocytes, Assay Type: Unscheduled DNA synthesis (UDS) in vitro, DNA effects, Assay Code: UDP-, Evaluation Type: Evaluation A (Pre-1980)): inactive; negative | mutagenic call [5]: inactive; negative | mutagenic call [6]: active; positive | mutagenic call [7]: inactive; negative | mutagenic call [8]: inactive; negative

COC(=O)COc1ccc(Br)cc1CSC(=N)N
mutagenic call [9]: no conclusion

Cc1cccc2ccc3cc4ccccc4cc3c12
mutagenic call (Species/Cell Type: Nonhuman, Assay Type: Sister-chromatid exchange (SCE) in vitro, Assay Code: SC2+, Evaluation Type: Evaluation B (Post-1980)): active; positive | mutagenic call [6]: active; positive

Nc1ccc([N+](=O)[O-])cc1O
mutagenic call (Species/Cell Type: Neurospora crassa, Assay Type: Aneuploidy, chromosome aberrations, Assay Code: NEN-, Evaluation Type: Evaluation A (Pre-1980)): inactive; negative | mutagenic call (Species/Cell Type: Rodents, Sex: Male, Assay Type: Dominant lethal test, Assay Code: DLT-, Evaluation Type: Evaluation A (Pre-1980)): inactive; negative | mutagenic call [10]: active; positive

O=c1c(O)c(-c2ccc(O)c(O)c2)oc2cc(O)cc(O)c12
mutagenic call (Species/Cell Type: Chinese hamster ovary (CHO) cells, Assay Type: Forward gene mutation at the HPRT locus, Assay Code: CHOT, Evaluation Type: Evaluation B (Post-1980)): no conclusion | mutagenic call (Species/Cell Type: Human lymphocytes, Assay Type: Sister-chromatid exchange (SCE) in vitro, Assay Code: SCL+D, Dose Response: With dose response, Evaluation Type: Evaluation B (Post-1980)): active; positive | mutagenic call (Species/Cell Type: Human, Assay Type: Sister-chromatid exchange (SCE) in vitro, Assay Code: SC1+D, Dose Response: With dose response, Evaluation Type: Evaluation B (Post-1980)): active; positive | mutagenic call (Species/Cell Type: Mammalian polychromatic erythrocytes, Assay Type: Micronucleus test, chromosome aberrations, Assay Code: MNT+, Evaluation Type: Evaluation B (Post-1980)): active; positive | mutagenic call (Species/Cell Type: Nonhuman, Assay Type: Sister-chromatid exchange (SCE) in vitro, Assay Code: SC2+/-*, Activation: With metabolic activation, Evaluation Type: Evaluation B (Post-1980)): inactive; positive without activation, negative with activation | mutagenic call (Species/Cell Type: Nonhuman, Assay Type: Sister-chromatid exchange (SCE) in vivo, Assay Code: SC3-, Evaluation Type: Evaluation B (Post-1980)): inactive; negative | mutagenic call (Species/Cell Type: Saccharomyces cerevisiae, Assay Type: Mitotic recombination or gene conversion, Assay Code: YEC+, Evaluation Type: Evaluation A (Pre-1980)): active; positive | mutagenic call [10]: active; positive

Cc1ncc([N+](=O)[O-])n1CC(=O)O
mutagenic call (Species/Cell Type: Human lymphocytes, Assay Type: Sister-chromatid exchange (SCE) in vitro, Assay Code: SCLT, Evaluation Type: Evaluation B (Post-1980)): no conclusion | mutagenic call (Species/Cell Type: Human, Assay Type: Sister-chromatid exchange (SCE) in vitro, Assay Code: SC1T, Evaluation Type: Evaluation B (Post-1980)): no conclusion

Nc1nc(/C=C/c2ccc([N+](=O)[O-])o2)cs1
mutagenic call [10]: active; positive

c1ccc2c(c1)ccc1ccccc12
mutagenic call (Species/Cell Type: Allium cepa, Assay Type: Chromosome aberrations, Assay Code: ALC+, Evaluation Type: Evaluation A (Pre-1980)): active; positive | mutagenic call [1]: inactive; negative | mutagenic call [2]: no conclusion | mutagenic call (Species/Cell Type: Fischer rat embryo (RLV/1706) cells, Assay Type: Cell transformation, viral enhanced, Assay Code: CTRT, Evaluation Type: Evaluation A (Pre-1980)): no conclusion | mutagenic call (Species/Cell Type: Human diploid fibroblasts, Assay Type: Unscheduled DNA synthesis (UDS) in vitro, DNA effects, Assay Code: UDH-, Evaluation Type: Evaluation A (Pre-1980)): inactive; negative | mutagenic call [3]: no conclusion | mutagenic call (Species/Cell Type: Mouse (BALB/c-3T3) cells, Assay Type: Cell transformation, Assay Code: CTB-, Evaluation Type: Evaluation A (Pre-1980)): inactive; negative | mutagenic call (Species/Cell Type: Mouse embryo (AKR/ME) cells, Assay Type: Cell transformation, Assay Code: CTK+, Evaluation Type: Evaluation A (Pre-1980)): active; positive | mutagenic call (Species/Cell Type: Mouse prostate cells, Assay Type: Cell transformation, Assay Code: CTM-, Evaluation Type: Evaluation A (Pre-1980)): inactive; negative | mutagenic call (Species/Cell Type: Nonhuman, Assay Type: Chromosome aberrations in vitro, Assay Code: CY&-, Evaluation Type: Evaluation A (Pre-1980)): inactive; negative | call [4]: no conclusion | mutagenic call (Species/Cell Type: Nonhuman, Assay Type: Sister-chromatid exchange (SCE) in vitro, Assay Code: SC2-, Evaluation Type: Evaluation A (Pre-1980)): inactive; negative | mutagenic call (Species/Cell Type: Nonhuman, Assay Type: Sister-chromatid exchange (SCE) in vivo, Assay Code: SC3+, Evaluation Type: Evaluation B (Post-1980)): active; positive | mutagenic call (Species/Cell Type: Nonhuman, Assay Type: Sister-chromatid exchange (SCE) in vivo, Assay Code: SC3T, Evaluation Type: Evaluation A (Pre-1980)): no conclusion | mutagenic call [5]: inactive; negative | mutagenic call (Species/Cell Type: Salmonella typhimurium (one or more of the five standard strains: TA98, TA100, TA1535, TA1537, and TA1538), Assay Type: Histidine reverse gene mutation, Ames assay, Assay Code: SAL-, Evaluation Type: Evaluation A (Pre-1980)): inactive; negative | mutagenic call [7]: inactive; negative | mutagenic call [8]: inactive; negative

CC(=O)[O-].CC(=O)[O-].[OH-].[OH-].[OH-].[OH-].[Pb+2].[Pb+2].[Pb+2]
call [11]: active; positive | mutagenic call (Species/Cell Type: Rodents, Sex: Male, Assay Type: Dominant lethal test, Assay Code: DLTT, Evaluation Type: Evaluation A (Pre-1980)): no conclusion

Nc1ccc(Oc2ccc(N)c(Cl)c2)cc1Cl
call [11]: active; positive

c1ccc2c(c1)ccc1nc3c(ccc4ccccc43)nc12
mutagenic call (Species/Cell Type: Drosophila melanogaster, Assay Type: Sex-linked recessive lethal gene mutation, Assay Code: SRLT, Evaluation Type: Evaluation A (Pre-1980)): no conclusion

CCOC(=O)COc1ccc(Br)cc1CCl (tested in a mixture with another compound)
mutagenic call [9]: no conclusion

COc1cc2c(c3oc(=O)c4c(c13)CCC4=O)[C@H]1[C@@H](O2)O[C@@H](Cl)[C@@H]1Cl
mutagenic call [10]: active; positive

C1C2OC2C2OC12 (centres undefined)
mutagenic call (Species/Cell Type: Neurospora crassa, Assay Type: Forward gene mutation, Assay Code: NEF+, Evaluation Type: Evaluation A (Pre-1980)): active; positive

CCn1c2cc(=N[N+]#N)ccc-2c2ccc(N=[N+]=[N-])cc2c1-c1ccccc1
mutagenic call (Species/Cell Type: Saccharomyces cerevisiae, Assay Type: Mitotic recombination or gene conversion, Assay Code: YECT, Evaluation Type: Evaluation A (Pre-1980)): no conclusion | mutagenic call [5]: inactive; negative | mutagenic call [9]: no conclusion

Cc1c2c(c(C)c3ccccc13)[C@H]1O[C@H]1c1ccccc1-2
mutagenic call [12]: active; positive | mutagenic call (Species/Cell Type: Mouse prostate cells, Assay Type: Cell transformation, Assay Code: CTM+D, Dose Response: With dose response, Evaluation Type: Evaluation A (Pre-1980)): active; positive | mutagenic call [10]: active; positive

c1ccc2c3c(ccc2c1)-c1cccc2cccc-3c12
call [11]: active; positive

O=C1OC(c2ccc(O)cc2)(c2ccc(O)cc2)c2ccccc21
mutagenic call (Species/Cell Type: Bacillus subtilis (H17 vs M45), Assay Type: Rec-assay, spot test, DNA effects (bacterial DNA repair), Assay Code: REW-, Evaluation Type: Evaluation A (Pre-1980)): inactive; negative | mutagenic call (Species/Cell Type: Bacillus subtilis (H17 vs M45T), Assay Type: Rec-assay, spot test, DNA effects (bacterial DNA repair), Assay Code: REXT, Evaluation Type: Evaluation A (Pre-1980)): no conclusion

CC1CCCN(N=O)C1 (centres undefined)
mutagenic call [12]: active; positive | call (Species/Cell Type: Nonhuman, Assay Code: CCG+L, Evaluation Type: Evaluation A (Pre-1980)): active; positive | mutagenic call (Species/Cell Type: Saccharomyces cerevisiae, Assay Type: Forward gene mutation, Assay Code: YEF+*, Activation: With metabolic activation, Evaluation Type: Evaluation A (Pre-1980)): active; positive | mutagenic call (Species/Cell Type: Saccharomyces cerevisiae, Assay Type: Reverse gene mutation, Assay Code: YER+*, Activation: With metabolic activation, Evaluation Type: Evaluation A (Pre-1980)): active; positive | mutagenic call [6]: active; positive
